From US20210087167A1, “ASK1 INHIBITOR COMPOUNDS AND USES THEREOF” (SEAL ROCK THERAPEUTICS, INC., priority 2017, published 2021)

Columns and labels:
ASK1 = molecular target: T1, ASK1 (Homo sapiens, UniProt Q99683); experiment: ASK1 Kinase Assay (Promega ASK1 Kinase Enzyme System, ADP-Glo); format: biochemical; details: enzyme 50 nM, myelin basic protein 1 μg/ml, ATP 10 μM
T1 construct: purchased Promega V3881
Procedure: The ASK1 enzymatic assay was run following Promega ASK1 Kinase Enzyme System (Cat #V3881). The kit provides the protocol, enzymes and all reagents necessary to run an assay.
Firstly, the compounds, enzyme, substrate and ATP were diluted in provided assay buffer. The final concentration of the enzyme was 50 nM, substrate (Myelin basic protein) 1 μg/ml and ATP 10 μM. The compound and the enzyme were pre-incubated in a 384 well white solid bottom plate (Greiner, Cat #784075) for 10 minutes. After incubation, the substrate and ATP were added and incubated for further 60 minutes. After 60 minutes, ADP-Glo™ was added and plate was incubated for another 40 minutes. After 40 minutes, Kinase Detection Reagent was added and the plate was incubated for 45 minutes. After 45 minutes, plate was read on Perkin Elmer EnVision using luminescence read (0.5 seconds/well).

[1] = tested on: LPS-induced TNFalpha in human PBMCs; experiment: Inhibition of LPS-induced TNFalpha in human PBMCs (ELISA); format: cell-based; details: PBMC, 100 ng/ml LPS, 6 hr, read-out: TNFa Inhibition IC50
Procedure: Cryopreserved human PBMCs were obtained from AllCells (cat #PB003F). After thawing/dilution protocols using RPMI medium supplemented with 5% FBS (heat inactivated), 100 ul/well of 1×10^6 cells/ml were plated into 96 well tissue culture plates (Corning). Cells were then pre-incubated for 1 hr at 37° C. in humidified 5% CO2 and 95% air with test compounds diluted in DMSO (final DMSO concentration 0.3%). Each compound was tested at 10 concentrations in duplicate wells. After the pre-incubation, 100 ng/ml LPS (E. Coli; Sigma) in RPMI media with 5% FBS was added for a 6 hr incubation at 37° C. in humidified 5% CO2 and 95% air. Controls on each plate included cells and LPS only, cells and media only (no LPS), and media only. After the 6 hr incubation, plates were centrifuged and the supernatants transferred to a new plate and frozen for subsequent TNFalpha analysis. Human TNFalpha was analyzed by ELISA according to the manufacturer's instructions (BD Sciences, BD OptEIAm Cat #550610) and analyzed on a SpectraMax M series (Molecular Devices) microplate reader at OD 450 nm. IC50s were calculated using XLFit4 curve fitting software (IDBS) and a 4-parameter one-site sigmoid dose response fit.

T1 sequence (Q99683 649-946 limits assumed): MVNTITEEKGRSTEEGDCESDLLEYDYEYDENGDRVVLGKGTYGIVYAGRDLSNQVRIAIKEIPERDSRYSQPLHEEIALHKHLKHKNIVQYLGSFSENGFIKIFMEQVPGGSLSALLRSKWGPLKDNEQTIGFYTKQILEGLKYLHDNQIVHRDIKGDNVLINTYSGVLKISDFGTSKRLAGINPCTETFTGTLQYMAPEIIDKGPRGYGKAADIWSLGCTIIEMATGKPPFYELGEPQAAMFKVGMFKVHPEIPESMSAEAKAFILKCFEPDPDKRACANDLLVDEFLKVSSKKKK

IC50 (ASK1) | Molecule | IC50 [1]
 | O=C1c2cc(-c3cnc(C4CC4)cn3)ccc2CN1c1cccc(-c2nncn2C2CC2)n1 [Compound 60, 2-(6-(4-cyclopropyl-4H-1,2,4-triazol-3-yl)pyridin-2-yl)-6-(5-cyclopropylpyrazin-2-yl)isoindolin-1-one] | > 10 µM
 | O=C(c1ccc2c(c1)CN(c1cccc(-c3nncn3C3CC3)n1)C2=O)N1CCOCC1 [Compound 7, 2-(6-(4-cyclopropyl-4H-1,2,4-triazol-3-yl)pyridin-2-yl)-5-(morpholine-4-carbonyl)isoindolin-1-one] | > 10 µM
 | CC(=O)N1CCN(C(=O)c2ccc3c(c2)CN(c2cccc(-c4nncn4C4CC4)n2)C3=O)CC1 [Compound 16, 5-(4-acetylpiperazine-1-carbonyl)-2-(6-(4-cyclopropyl-4H-1,2,4-triazol-3-yl)pyridin-2-yl)isoindolin-1-one] | > 10 µM
 | CC(=O)NC1CCN(C(=O)c2ccc3c(c2)CN(c2cccc(-c4nncn4C4CC4)n2)C3=O)CC1 [Compound 17, N-(1-(2-(6-(4-cyclopropyl-4H-1,2,4-triazol-3-yl)pyridin-2-yl)-1-oxoisoindoline-5-carbonyl)piperidin-4-yl)acetamide] | > 10 µM
 | CC1(O)CCN(C(=O)c2ccc3c(c2)CN(c2cccc(-c4nncn4C4CC4)n2)C3=O)CC1 [Compound 13, 2-(6-(4-cyclopropyl-4H-1,2,4-triazol-3-yl)pyridin-2-yl)-5-(4-hydroxy-4-methylpiperidine-1-carbonyl)isoindolin-1-one] | > 10 µM
0.2 to 1 µM | O=C(Nc1cc2c(cc1F)CN(c1cccc(-c3nncn3C3CC3)n1)C2=O)C1CC1 [Compound 75, N-(2-(6-(4-cyclopropyl-4H-1,2,4-triazol-3-yl)pyridin-2-yl)-6-fluoro-3-oxoisoindolin-5-yl)cyclopropanecarboxamide] | 
< 0.2 µM | Cn1ccc(-c2ccc3c(c2)CN(c2cccc(-c4nncn4C4CC4)n2)C3=O)n1 [Compound 27] | 
 | O=C(c1ccc2c(c1)CN(c1cccc(-c3nncn3C3CC3)n1)C2=O)N1CCC(O)CC1 [Compound 12, 2-(6-(4-cyclopropyl-4H-1,2,4-triazol-3-yl)pyridin-2-yl)-5-(4-hydroxypiperidine-1-carbonyl)isoindolin-1-one] | > 10 µM
< 0.2 µM | 2-(6-(4-cyclopropyl-4H-1,2,4-triazol-3-yl)pyridin-2-yl)-5-isopropoxy-6-(pyridin-3-yl)isoindolin-1-one [Compound 70] | 

Molecule | IC50 (ASK1) | IC50 [1]
CN(C)c1ccc2c(c1)CN(c1cccc(-c3nncn3C3CC3)n1)C2=O [Compound 34] | < 0.2 µM | 
